In patent US8835134B2, “Cycloastragenol monoglucoside, preparation, pharmaceutical composition and application thereof” (Tianjin Institute of Pharmaceutical Research, priority 2007, dated 2014):

System: anesthetized open-chest dogs
Test: Hemodynamics of anesthetized open-chest dogs, intravenous infusion
Assay type: in vivo, mongrel dogs
Conditions: 0.15 mg/kg iv
Experimental: The animals were anesthetized by intravenous injection of 30 mg/kg sodium pentobarbital, tracheally intubated, and mechanically ventilated with positive air pressure. Left thoracotomy was performed through the fourth intercostal space and the heart was suspended in a pericardial cradle, the aortic root was isolated and a probe of blood flow meter (12 or 14 mm in diameter) was fixed to measure the aortic blood flow as a representation of cardiac output (CO), the circumflex branch of left coronary artery was isolated and a probe of blood flow meter (2 or 2.5 mm in diameter) was fixed to measure the coronary blood flow (CBF). A polyethylene catheter filled with heparin physiological saline was inserted through cardiac apex into the left ventricle to measure the left ventricular pressure (LVP) and left ventricular end-diastolic pressure (LVEDP), Peak positive and peak negative first derivatives of the LVP (+ LVdp/dt and − LVdp/dt) were calculated with the Acknowledge software. The systolic blood pressure (SBP), diastolic blood pressure (DBP) and mean arterial pressure (MAP) were measured by polyethylene catheter via the femoral artery, ECG □ was measured by a AC-601G ECG amplifier. The above-mentioned analog signal was input into a data acquisition workstation (MP100, BIOPAC Systems, USA) to a computer running Acknowledge (version 3.7.1).
After surgery, various indexes before administration were recorded until the indexes were stable, and then intravenous infusion administration was conducted. Thirty dogs were divided into five groups (six dogs in each group), the experiment groups were given 0.15, 0.3, 0.6 mg/kg of ASP-[…] respectively, the normal control group was given 1 ml/kg of solvent, and the positive control group was given 0.3 mg/kg of astragaloside IV. The delivery volumes were 15 ml for each dog was and the delivery velocity was 1 ml/min. The indexes were recorded at 5, 10, 15, 20, 30, 45, 60, 90 and 120 mins after drug administration. At the end of experiment, the hearts were excised and weighted. The myocardial blood flow for per hectogram (CF), coronary resistance (CR), cardiac index (CI), left ventricular work (LVW) and total peripheral resistance (TPR) were calculated according to the following formulae: CF=CBF×[…]/heart weight CR=MAP/CF CI=CO/0.11×(body weight)^2/3 LVW=CO×(MAP−5)×1.052×0.0136 TPR=MAP×79.92/CO
Data are expressed as mean±SD ( x±s), the paired t-test was used to compare the significance between before and after administration, the unpaired t-test was adopted for comparison between groups.

For `CC(C)(O)[C@@H]1CC[C@](C)([C@H]2[C@@H](O)C[C@@]3(C)C4C[C@H](OC5OC(CO)C(O)C(O)C5O)C5C(C)(C)[C@@H](O)CC[C@@]56C[C@@]46CC[C@]23C)O1` (stereo partly drawn) [CMG, Cycloastragenol-6-O-β-D-glucoside], the LVEDP maximum decrease was 1.1±0.4 mmHg, the CF (5 min after administration) was 57 ± 21.7 ml/min/100 g and the “CF change vs before administration” value (5 min after administration) was “(−0.7 ± 3.6) ml/min/100 g”. For the same compound, the CI (5 min after administration) was 2.15 ± 0.65 L/min/m^2, the “CI change vs before administration” value (5 min after administration) was “(0.07 ± 0.16) L/min/m^2” and the CO (5 min after administration) was 1.24 ± 0.38 L/min. The “CO change vs before administration” value (5 min after administration) was “(0.04 ± 0.09) L/min”, the CR (5 min after administration) was 1.35 ± 0.42 mmHg/ml/min/100 g and the “CR change vs before administration” value (5 min after administration) was “(−0.01 ± 0.08) mmHg/ml/min/100 g”. The LVEDP (5 min after administration) was 1.0 ± 2.3 mmHg, the “LVEDP change vs before administration” value (5 min after administration) was “(−0.78 ± 0.61) mmHg” and the LVP (5 min after administration) was 105 ± 21 mmHg. For the same compound, the “LVP change vs before administration” value (5 min after administration) was “(0.1 ± 3.4) mmHg”, the LVW (5 min after administration) was 1.15 ± 0.43 kg · m and the “LVW change vs before administration” value (5 min after administration) was “(0.03 ± 0.17) kg · m”. For the same compound, the TPR (5 min after administration) was 4967 ± 2135 dyn · s/cm^5, the “TPR change vs before administration” value (5 min after administration) was “(−183 ± 313) dyn · s/cm^5” and the dp/dt (5 min after administration) was 1205 ± 417 mmHg/s. The “dp/dt change vs before administration” value (5 min after administration) was “(56 ± 94) mmHg/s”, the “−dp/dt” value (5 min after administration) was −865 ± 286 mmHg/s and the “−dp/dt change vs before administration” value (5 min after administration) was “(22 ± 65) mmHg/s”. For the same compound, the CF (10 min after administration) was 55.9 ± 21.6 ml/min/100 g, the “CF change vs before administration” value (10 min after administration) was “(−1.8 ± 5.0) ml/min/100 g” and the CI (10 min after administration) was 2.26 ± 0.55 L/min/m^2. The “CI change vs before administration” value (10 min after administration) was “(0.18 ± 0.20) L/min/m^2”, the CO (10 min after administration) was 1.31 ± 0.32 L/min and the “CO change vs before administration” value (10 min after administration) was “(0.10 ± 0.12) L/min”. The CR (10 min after administration) was 1.36 ± 0.42 mmHg/ml/min/100 g, the “CR change vs before administration” value (10 min after administration) was “(0.00 ± 0.11) mmHg/ml/min/100 g” and the LVEDP (10 min after administration) was 1.0 ± 2.3 mmHg. For the same compound, the “LVEDP change vs before administration” value (10 min after administration) was “(−0.73 ± 0.49) mmHg”, the LVP (10 min after administration) was 103 ± 22 mmHg and the “LVP change vs before administration” value (10 min after administration) was “(−1.5 ± 3.7) mmHg”. The LVW (10 min after administration) was 1.18 ± 0.34 kg · m, the “LVW change vs before administration” value (10 min after administration) was “(0.06 ± 0.19) kg · m” and the TPR (10 min after administration) was 4568 ± 1871 dyn · s/cm^5. For the same compound, the “TPR change vs before administration” value (10 min after administration) was “(−582 ± 652) dyn · s/cm^5”, the dp/dt (10 min after administration) was 1173 ± 407 mmHg/s and the “dp/dt change vs before administration” value (10 min after administration) was “(23 ± 110) mmHg/s”. For the same compound, the “−dp/dt” value (10 min after administration) was −883 ± 288 mmHg/s, the “−dp/dt change vs before administration” value (10 min after administration) was “(5 ± 36) mmHg/s” and the CF (15 min after administration) was 55.9 ± 22.2 ml/min/100 g. The “CF change vs before administration” value (15 min after administration) was “(−1.8 ± 5.8) ml/min/100 g”, the CI (15 min after administration) was 2.09 ± 0.45 L/min/m^2 and the “CI change vs before administration” value (15 min after administration) was “(0.01 ± 0.24) L/min/m^2”. For the same compound, the CO (15 min after administration) was 1.21 ± 0.26 L/min, the “CO change vs before administration” value (15 min after administration) was “(0.00 ± 0.15) L/min” and the CR (15 min after administration) was 1.32 ± 0.38 mmHg/ml/min/100 g. For the same compound, the “CR change vs before administration” value (15 min after administration) was “(−0.03 ± 0.14) mmHg/ml/min/100 g”, the LVEDP (15 min after administration) was 1.0 ± 2.3 mmHg and the “LVEDP change vs before administration” value (15 min after administration) was “(−0.73 ± 0.60) mmHg”. For the same compound, the LVP (15 min after administration) was 103 ± 25 mmHg, the “LVP change vs before administration” value (15 min after administration) was “(−2.0 ± 4.7) mmHg” and the LVW (15 min after administration) was 1.08 ± 0.31 kg · m. The “LVW change vs before administration” value (15 min after administration) was “(−0.04 ± 0.19) kg · m”, the TPR (15 min after administration) was 4612 ± 1333 dyn · s/cm^5 and the “TPR change vs before administration” value (15 min after administration) was “(−538 ± 1075) dyn · s/cm^5”. For the same compound, the dp/dt (15 min after administration) was 1170 ± 449 mmHg/s, the “dp/dt change vs before administration” value (15 min after administration) was “(20 ± 113) mmHg/s” and the “−dp/dt” value (15 min after administration) was −875 ± 288 mmHg/s. The “−dp/dt change vs before administration” value (15 min after administration) was “(13 ± 49) mmHg/s”, the CF (20 min after administration) was 54.3 ± 20.4 ml/min/100 g and the “CF change vs before administration” value (20 min after administration) was “(−3.4 ± 4.4) ml/min/100 g”. The CI (20 min after administration) was 2.05 ± 0.45 L/min/m^2, the “CI change vs before administration” value (20 min after administration) was “(−0.03 ± 0.26) L/min/m^2” and the CO (20 min after administration) was 1.19 ± 0.27 L/min. The “CO change vs before administration” value (20 min after administration) was “(−0.02 ± 0.15) L/min”, the CR (20 min after administration) was 1.35 ± 0.39 mmHg/ml/min/100 g and the “CR change vs before administration” value (20 min after administration) was “(0.00 ± 0.13) mmHg/ml/min/100 g”. The LVEDP (20 min after administration) was 1.2 ± 2.4 mmHg, the “LVEDP change vs before administration” value (20 min after administration) was “(−0.62 ± 0.47) mmHg” and the LVP (20 min after administration) was 101 ± 21 mmHg. For the same compound, the “LVP change vs before administration” value (20 min after administration) was “(−3.8 ± 5.1) mmHg”.
